Experimental data: PubChem BioAssay (NCI)
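Growth conditions: 96-well plates. Treatment: test compound, 48 hours, 5 concentrations. Analysis: linear interpolation between bracketing concentrations; unreached endpoints set to highest concentration. Definition used: TGI = concentration required for complete inhibition of growth.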

What was measured:
Assay in all cases: NCI-60 cell line screen, 48 h
SNB-78 CNS = system: SNB-78 CNS
XF 498 CNS = system: XF 498 CNS
RXF-631 renal = system: RXF-631 renal

Q: How did the TGI (SNB-78 CNS) turn out when `COc1ccc([C@H]2[C@@H]3CCc4ccccc4C3=NN2C(N)=S)cc1OC` was run?
A: Its TGI is greater than 100 µM.

Q: And the TGI (XF 498 CNS)?
A: Its TGI is greater than 100 µM.

Q: `CC(=O)Nc1ccc(S(=O)(=O)N/N=C(\C)CN2C(=O)c3ccccc3C2=O)cc1` was tested. Which TGI (SNB-78 CNS) did it give?
A: The TGI was greater than 100 µM.

Q: With `CC(=O)NC(CCCCN(Cc1ccccc1)C(=O)N(C)N=O)C(=O)NCc1ccccc1` (stereo not given) as the compound, how does the TGI (RXF-631 renal) read?
A: Its TGI is greater than 100 µM.

Q: And the TGI (SNB-78 CNS)?
A: Its TGI is greater than 100 µM.

Q: What about the TGI (XF 498 CNS) of the same compound?
A: Its TGI is greater than 100 µM.

Q: `COc1cc2c(cc1OC)C(Cc1cc(Br)c(OC)c(OC)c1)=[N+](C)CC2` was tested. Which TGI (SNB-78 CNS) did it give?
A: The TGI was greater than 100 µM.

Q: For `CC1(C)OC2C(O1)[C@H]1OC(C(Cl)(Cl)Cl)=N[C@H]1C(I)[C@H]2N1C(=O)c2ccccc2C1=O` (stereo not given in full), which TGI (SNB-78 CNS) is on record?
A: The TGI was greater than 100 µM.

Q: For `CN(C)CCSC(=Nc1ccccc1)n1cccc1`, which TGI (SNB-78 CNS) is on record?
A: Its TGI is 76.9 µM.

Q: What about the TGI (XF 498 CNS) of the same compound?
A: Its TGI is greater than 100 µM.

Q: Which TGI (RXF-631 renal) does the source give for `O=C(c1nc2ccc(Cl)cc2[nH]c1=O)C(O)c1ccco1` (stereo not given) here?
A: Its TGI is greater than 100 µM.

Q: What does the source list for `CC(C)C1COC(C(C)(C)C2=N[C@@H](C(C)C)CO2)=N1` (stereo not given in full)?
A: TGI (RXF-631 renal): > 100 µM; TGI (XF 498 CNS): > 100 µM

Q: With `Cc1ccc([N+](=O)[O-])cc1NC(=O)/C(CC(=O)c1sc(C(N)=S)nc1C)=N\N` as the compound, how does the TGI (RXF-631 renal) read?
A: Its TGI is greater than 100 µM.

Q: And the TGI (SNB-78 CNS)?
A: The TGI was greater than 100 µM.

Q: What does the source list for `FC(F)(F)c1nc2c(ccc3[nH]c4c(-c5ccccc5)nccc4c32)[nH]1`?
A: TGI (RXF-631 renal): > 100 µM; TGI (SNB-78 CNS): > 100 µM; TGI (XF 498 CNS): > 100 µM

Q: Which results are given for `CC1=C(c2ccccc2)CON(c2ccccc2)C1`?
A: TGI (RXF-631 renal): 77.4 µM; TGI (SNB-78 CNS): > 100 µM; TGI (XF 498 CNS): > 100 µM

Q: What does the source list for `COc1cc(CO)cc2c1[nH]c1ccccc12`?
A: TGI (SNB-78 CNS): > 25 µM; TGI (XF 498 CNS): > 25 µM

Q: Which TGI (SNB-78 CNS) does the source give for `CCOc1cc2cnc3c4cc(OC)c(OC)cc4ccc3c2cc1OC` here?
A: Its TGI is greater than 100 µM.

Q: What does the source list for `O=C(Cc1ccccc1)N/N=C(/c1nc2ccc([N+](=O)[O-])cc2[nH]c1=O)C(O)c1ccco1` (stereo not given)?
A: TGI (SNB-78 CNS): > 100 µM; TGI (XF 498 CNS): > 100 µM

Q: `COC(=O)[C@H]1C2CC[C@@H]3C45C[C@@H](c6ccoc6)O[C@@H]4O[C@@H](O2)C31CCC5C` (stereo not given in full) was tested. Which TGI (SNB-78 CNS) did it give?
A: The TGI was greater than 100 µM.

Q: And the TGI (XF 498 CNS)?
A: The TGI was greater than 100 µM.

Q: For `N#CC(C(=S)Nc1ccccc1)=C1Nc2ccccc2N1`, which TGI (XF 498 CNS) is on record?
A: The TGI was greater than 10 µM.

Q: Which results are given for `N#CC(C#N)=C(N)/C(C#N)=C/c1ccc(O)c(O)c1`?
A: TGI (SNB-78 CNS): > 100 µM; TGI (XF 498 CNS): > 100 µM

Q: How did the TGI (SNB-78 CNS) turn out when `CC(=O)OCc1ncccc1C(OC(C)=O)OC(C)=O` was run?
A: Its TGI is greater than 100 µM.

Q: And the TGI (XF 498 CNS)?
A: Its TGI is greater than 100 µM.

Q: Which results are given for `O=C(c1nc2ccc(Cl)cc2[nH]c1=O)C(O)c1cccc([N+](=O)[O-])c1` (stereo not given)?
A: TGI (SNB-78 CNS): > 100 µM; TGI (XF 498 CNS): > 100 µM

Q: Which TGI (RXF-631 renal) does the source give for `C[C@@H]1C[C@@H]2C(=O)N(c3ccccc3)C(=O)[C@@H]2c2[nH]c3ccc(Br)cc3c21` here?
A: The TGI was greater than 100 µM.

Q: What about the TGI (SNB-78 CNS) of the same compound?
A: The TGI was 71 µM.

Q: And the TGI (XF 498 CNS)?
A: Its TGI is 81.3 µM.

Q: For `CCOC(=O)/C(=C/c1ccccc1)N(CC)CC`, which TGI (SNB-78 CNS) is on record?
A: Its TGI is greater than 100 µM.

Q: And the TGI (XF 498 CNS)?
A: Its TGI is greater than 100 µM.
